Results from ChEMBL document CHEMBL1201862, “PubChem BioAssay data set” (2004).
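Method: 48-hour compound exposure of cells in 96-well plates, five concentrations, linear interpolation of endpoints. The concentration for 50% growth inhibition is given as GI50.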 The source made the active and inactive calls. Rule as the data show it: active = GI50 up to about 1.1 µM and inactive = higher.

Legend:
Test in all cases: inhibition of tumour cell growth, NCI panel, 48 h
SW-620 = tested on: SW-620
HT-29 = tested on: HT-29
SR = tested on: SR
A549 = tested on: A549
OVCAR-4 = tested on: OVCAR-4
MDA-MB-435 = tested on: MDA-MB-435
NCI/ADR-RES = tested on: NCI/ADR-RES
T47D = tested on: T47D
NCI-H522 = tested on: NCI-H522
LOX IMVI = tested on: LOX IMVI
MDA-N = tested on: MDA-N
OVCAR-3 = tested on: OVCAR-3
RXF 393 = tested on: RXF 393
UO-31 = tested on: UO-31
DU-145 = tested on: DU-145
SK-MEL-2 = tested on: SK-MEL-2
UACC-257 = tested on: UACC-257
ACHN = tested on: ACHN
UACC-62 = tested on: UACC-62
786-0 = tested on: 786-0

SMILES | GI50 (SW-620) | GI50 (HT-29) | GI50 (SR) | GI50 (A549) | GI50 (OVCAR-4) | GI50 (MDA-MB-435) | GI50 (NCI/ADR-RES) | GI50 (T47D) | GI50 (NCI-H522) | GI50 (LOX IMVI) | GI50 (MDA-N) | GI50 (OVCAR-3) | GI50 (RXF 393) | GI50 (UO-31) | GI50 (DU-145) | GI50 (SK-MEL-2) | GI50 (UACC-257) | GI50 (ACHN) | GI50 (UACC-62) | GI50 (786-0)
CC(C)CC1c2[nH]c3ccccc3c2C[C@H]2C(=O)NC(CCC(=O)OC(C)(C)C)C(=O)N12 (stereo not given in full) | 45 µM (inactive) | 21.1 µM (inactive) | 22 µM (inactive) | 34 µM (inactive) | 37.3 µM (inactive) | 36 µM (inactive) | 30.3 µM (inactive) | 15.8 µM (inactive) | 25.2 µM (inactive) | 22.9 µM (inactive) | 30.7 µM (inactive) | 16.8 µM (inactive) | 19.1 µM (inactive) | 33 µM (inactive) | 47.1 µM (inactive) | 18.4 µM (inactive) | 25.9 µM (inactive) | 30.8 µM (inactive) | 30.5 µM (inactive) | 43 µM (inactive)
Clc1ccc(-c2cn3c(nc4ccccc43)c(-c3ccccc3)n2)cc1 | 43.3 µM (inactive) | 10.8 µM (inactive) | > 82 µM (inactive) | 17.4 µM (inactive) | 5.85 µM (inactive) | 25.2 µM (inactive) | 34.9 µM (inactive) | 36.6 µM (inactive) | 13.8 µM (inactive) | 32 µM (inactive) | 27.2 µM (inactive) | 27.7 µM (inactive) | 15.6 µM (inactive) | 24.2 µM (inactive) | > 71.9 µM (inactive) | 14.1 µM (inactive) | 61.2 µM (inactive) | 29.6 µM (inactive) | 11.4 µM (inactive) | 9.35 µM (inactive)
CCN(CC)CCN1c2ccccc2Sc2ccc3ccccc3c21 | 11.4 µM (inactive) | 3.18 µM (inactive) | 4.94 µM (inactive) | 14.2 µM (inactive) | 5.36 µM (inactive) | 8.63 µM (inactive) | 10.6 µM (inactive) | 2.01 µM (inactive) | 11.8 µM (inactive) | 7.52 µM (inactive) | 12.3 µM (inactive) | 11.6 µM (inactive) | 2.12 µM (inactive) | 5.81 µM (inactive) | 3.93 µM (inactive) | 14.3 µM (inactive) | 7.69 µM (inactive) | 13.7 µM (inactive) | 8.57 µM (inactive) | 11.3 µM (inactive)
c1c[nH]c(CN2CCN(Cc3ncc[nH]3)CC2)n1 | > 100 µM (inactive) | > 100 µM (inactive) | > 100 µM (inactive) | > 100 µM (inactive) | > 100 µM (inactive) | > 100 µM (inactive) | > 100 µM (inactive) | > 100 µM (inactive) | > 100 µM (inactive) | > 100 µM (inactive) | > 100 µM (inactive) | > 100 µM (inactive) | > 100 µM (inactive) | > 100 µM (inactive) | > 100 µM (inactive) | > 100 µM (inactive) | > 100 µM (inactive) | > 100 µM (inactive) | > 100 µM (inactive) | > 100 µM (inactive)
Nc1ccc(Oc2ccc(C34CC5CC(C3)CC(c3ccc(Oc6ccc(N)cc6)cc3)(C5)C4)cc2)cc1 | > 25.5 µM (inactive) | 8.11 µM (inactive) | 3.56 µM (inactive) | 11.1 µM (inactive) | 8.79 µM (inactive) | 7.53 µM (inactive) | 13.9 µM (inactive) | 6.84 µM (inactive) | 11.9 µM (inactive) | 6.25 µM (inactive) | 8.71 µM (inactive) | 7.66 µM (inactive) | 12.8 µM (inactive) | 33 µM (inactive) | 7.43 µM (inactive) | 13.1 µM (inactive) | 9.86 µM (inactive) | 19.5 µM (inactive) | 10.4 µM (inactive) | 10.2 µM (inactive)
Clc1sc(Cl)c2c1[C@H](Br)C[C@@H]2Cl | 21.6 µM (inactive) | 35 µM (inactive) | 15.7 µM (inactive) | 32.9 µM (inactive) | 55.8 µM (inactive) | 18.4 µM (inactive) | 17.7 µM (inactive) | 36.4 µM (inactive) | 16.9 µM (inactive) | 18.2 µM (inactive) | 41.7 µM (inactive) | 23.8 µM (inactive) | 26 µM (inactive) | 18.3 µM (inactive) | 33.7 µM (inactive) | 59.8 µM (inactive) | 29.4 µM (inactive) | 18.8 µM (inactive) | 20.9 µM (inactive) | 32.9 µM (inactive)
O=C(O)CC12CC3CC(CC(O)(C3)C1)C2 | > 100 µM (inactive) | > 100 µM (inactive) | > 100 µM (inactive) | > 100 µM (inactive) | > 100 µM (inactive) | > 100 µM (inactive) | > 100 µM (inactive) | > 100 µM (inactive) | 27.7 µM (inactive) | > 100 µM (inactive) | > 100 µM (inactive) | 3.14 µM (inactive) | > 100 µM (inactive) | > 100 µM (inactive) | > 100 µM (inactive) | > 100 µM (inactive) | > 100 µM (inactive) | > 100 µM (inactive) | > 100 µM (inactive) | > 100 µM (inactive)
C=CCNC1=C2C[C@@H](C)C[C@@H](OC)[C@H](OC(=O)CCN)[C@H](C)/C=C(\C)[C@@H](OC(N)=O)[C@H](OC)/C=C\C=C(/C)C(=O)NC(=CC1=O)C2=O | 3.6 µM (inactive) | 0.409 µM (active) | 0.938 µM (active) | 3.4 µM (inactive) | 8.93 µM (inactive) | 2.98 µM (inactive) | 76.2 µM (inactive) | 4.89 µM (inactive) | 5.3 µM (inactive) | 3.03 µM (inactive) | 1.21 µM (inactive) | 2.45 µM (inactive) | 4.66 µM (inactive) | 11.2 µM (inactive) | 1.21 µM (inactive) | 1.9 µM (inactive) | 2.42 µM (inactive) | 12.6 µM (inactive) | 2.9 µM (inactive) | 4.38 µM (inactive)
CCCC(=O)Nc1cc(/C=C/C(=O)N2C[C@H]3C[C@@]34C2=CC(=O)c2[nH]cc(C)c24)n(C)c1 | < 0.0025 µM (active) | < 0.0025 µM (active) | < 0.0025 µM (active) | 0.00395 µM (active) | < 0.0025 µM (active) | < 0.0025 µM (active) | 0.00982 µM (active) | < 0.0025 µM (active) | < 0.0025 µM (active) | < 0.0025 µM (active) | < 0.0025 µM (active) | < 0.0025 µM (active) | < 0.0025 µM (active) | 0.00403 µM (active) | < 0.0025 µM (active) | < 0.0025 µM (active) | < 0.0025 µM (active) | < 0.0025 µM (active) | < 0.0025 µM (active) | < 0.0025 µM (active)
COc1cc2c(c(OC)c1OC)-c1ccc(SC)c(=O)cc1[C@@H](NC(=O)C(F)(F)F)CC2 | < 0.01 µM (active) | < 0.01 µM (active) | < 0.01 µM (active) | < 0.01 µM (active) | 10.3 µM (inactive) | < 0.01 µM (active) | 0.0261 µM (active) | > 60.8 µM (inactive) | < 0.01 µM (active) | < 0.01 µM (active) | < 0.01 µM (active) | < 0.0158 µM (active) | < 0.01 µM (active) | < 0.0146 µM (active) | < 0.01 µM (active) | < 0.01 µM (active) | < 0.01 µM (active) | < 0.01 µM (active) | < 0.0102 µM (active) | < 0.01 µM (active)
